Species: Rattus norvegicus
Test: DrugMatrix - Regimen: Daily Repeat
Type: toxicity, organism-based, Sprague-Dawley
Design: regimen Daily Repeat, gender Male, age 6-8 weeks
Conditions: in vivo, po, route oral GAVAGE, vehicle .5 % CMC; for ABSOLUTE BASOPHIL / ABSOLUTE EOSINOPHIL / ABSOLUTE LYMPHOCYTE / ABSOLUTE MONOCYTE / ABSOLUTE SEGMENTED NEUTROPHIL / BASOPHIL / EOSINOPHIL / ERYTHROCYTE COUNT / HEMATOCRIT / HEMOGLOBIN / LEUKOCYTE COUNT / LYMPHOCYTE / MEAN CORPUSCULAR HEMOGLOBIN / MEAN CORPUSCULAR HEMOGLOBIN CONCENTRATION / MEAN CORPUSCULAR VOLUME / MONOCYTE / NEUTROPHIL / NUCLEATED RED BLOOD CELLS / PLATELET COUNT: tissue Blood; for ALANINE AMINOTRANSFERASE / ALBUMIN / ALKALINE PHOSPHATASE / ASPARTATE AMINOTRANSFERASE / BLOOD UREA NITROGEN / CARBON DIOXIDE / CHLORIDE / CHOLESTEROL / CREATINE PHOSPHOKINASE / CREATININE / GLUCOSE / LACTATE DEHYDROGENASE / LIPASE / PHOSPHORUS / POTASSIUM / SODIUM / TOTAL BILIRUBIN / TOTAL PROTEIN / URIC ACID: tissue Plasma
[1] = 0 mg/kg, 72 h, dose level Control, time 3 day
[2] = 0 mg/kg, 120 h, dose level Control, time 5 day
[3] = 500 mg/kg, 72 h, dose level Low, time 3 day

In the case of `CC(C)(Sc1cc(C(C)(C)C)c(O)c(C(C)(C)C)c1)Sc1cc(C(C)(C)C)c(O)c(C(C)(C)C)c1` [PROBUCOL], the “ABSOLUTE BASOPHIL” value [1] is reported as 0 CELLS/uL, the “ABSOLUTE EOSINOPHIL” value [1] is reported as 222.83 CELLS/uL and the “ABSOLUTE LYMPHOCYTE” value [1] is reported as 14453 CELLS/uL. For the same compound, the “ABSOLUTE MONOCYTE” value [1] was 0 CELLS/uL, the “ABSOLUTE SEGMENTED NEUTROPHIL” value [1] was 1490.83 CELLS/uL and the BASOPHIL [1] was 0%. The EOSINOPHIL [1] was 1.33%, the “ERYTHROCYTE COUNT” value [1] was 5.76 x10E6/uL and the HEMATOCRIT [1] was 36.52%. The HEMOGLOBIN [1] was 13.45 G/DL, the “LEUKOCYTE COUNT” value [1] was 16.17 x10E3/uL and the LYMPHOCYTE [1] was 89.33%. For the same compound, the “MEAN CORPUSCULAR HEMOGLOBIN” value [1] was 23.37 pg, the “MEAN CORPUSCULAR HEMOGLOBIN CONCENTRATION” value [1] was 36.85 G/DL and the “MEAN CORPUSCULAR VOLUME” value [1] was 63.47 fL. For the same compound, the MONOCYTE [1] was 0%, the NEUTROPHIL [1] was 9.33% and the “NUCLEATED RED BLOOD CELLS” value [1] was 0 /100WBC. For the same compound, the “PLATELET COUNT” value [1] was 1239.5 x10E3/uL, the “ALANINE AMINOTRANSFERASE” value [1] was 43.83 u/L and the ALBUMIN [1] was 4.27 G/DL. For the same compound, the “ALKALINE PHOSPHATASE” value [1] was 398.83 u/L, the “ASPARTATE AMINOTRANSFERASE” value [1] was 81.17 u/L and the “BLOOD UREA NITROGEN” value [1] was 17.67 mg/dL. The “CARBON DIOXIDE” value [1] was 27.5 mmol/L, the CHLORIDE [1] was 99.17 MEQ/L and the CHOLESTEROL [1] was 74 mg/dL. For the same compound, the “CREATINE PHOSPHOKINASE” value [1] was 331.5 u/L, the CREATININE [1] was 0.2 mg/dL and the GLUCOSE [1] was 171.33 mg/dL. The “LACTATE DEHYDROGENASE” value [1] was 241.67 u/L, the LIPASE [1] was 9.5 u/L and the PHOSPHORUS [1] was 12.25 mg/dL. The POTASSIUM [1] was 6.33 MEQ/L, the SODIUM [1] was 141.28 MEQ/L and the “TOTAL BILIRUBIN” value [1] was 0.15 mg/dL. For the same compound, the “TOTAL PROTEIN” value [1] was 5.98 G/DL, the “URIC ACID” value [1] was 1.63 mg/dL and the “ABSOLUTE BASOPHIL” value [2] was 0 CELLS/uL. The “ABSOLUTE EOSINOPHIL” value [2] was 148.67 CELLS/uL, the “ABSOLUTE LYMPHOCYTE” value [2] was 16020.5 CELLS/uL and the “ABSOLUTE MONOCYTE” value [2] was 29.17 CELLS/uL. The “ABSOLUTE SEGMENTED NEUTROPHIL” value [2] was 1468.33 CELLS/uL, the BASOPHIL [2] was 0% and the EOSINOPHIL [2] was 1%. For the same compound, the “ERYTHROCYTE COUNT” value [2] was 5.78 x10E6/uL, the HEMATOCRIT [2] was 35.77% and the HEMOGLOBIN [2] was 13.4 G/DL. For the same compound, the “LEUKOCYTE COUNT” value [2] was 17.67 x10E3/uL, the LYMPHOCYTE [2] was 90.5% and the “MEAN CORPUSCULAR HEMOGLOBIN” value [2] was 23.22 pg. The “MEAN CORPUSCULAR HEMOGLOBIN CONCENTRATION” value [2] was 37.47 G/DL, the “MEAN CORPUSCULAR VOLUME” value [2] was 61.92 fL and the MONOCYTE [2] was 0.17%. The NEUTROPHIL [2] was 8.33%, the “NUCLEATED RED BLOOD CELLS” value [2] was 0.17 /100WBC and the “PLATELET COUNT” value [2] was 1255.5 x10E3/uL. For the same compound, the “ALANINE AMINOTRANSFERASE” value [2] was 46.5 u/L, the ALBUMIN [2] was 4.38 G/DL and the “ALKALINE PHOSPHATASE” value [2] was 336 u/L. The “ASPARTATE AMINOTRANSFERASE” value [2] was 76.5 u/L, the “BLOOD UREA NITROGEN” value [2] was 20 mg/dL and the “CARBON DIOXIDE” value [2] was 27.5 mmol/L. The CHLORIDE [2] was 101 MEQ/L, the CHOLESTEROL [2] was 71.33 mg/dL and the “CREATINE PHOSPHOKINASE” value [2] was 231.83 u/L. The CREATININE [2] was 0.37 mg/dL, the GLUCOSE [2] was 168.83 mg/dL and the “LACTATE DEHYDROGENASE” value [2] was 174 u/L. For the same compound, the LIPASE [2] was 8.67 u/L, the PHOSPHORUS [2] was 11.48 mg/dL and the POTASSIUM [2] was 6.82 MEQ/L. For the same compound, the SODIUM [2] was 143.8 MEQ/L, the “TOTAL BILIRUBIN” value [2] was 0.2 mg/dL and the “TOTAL PROTEIN” value [2] was 5.98 G/DL. For the same compound, the “URIC ACID” value [2] was 1.83 mg/dL, the “ABSOLUTE BASOPHIL” value [3] was 0 CELLS/uL and the “ABSOLUTE EOSINOPHIL” value [3] was 297 CELLS/uL. For the same compound, the “ABSOLUTE LYMPHOCYTE” value [3] was 13431.33 CELLS/uL, the “ABSOLUTE MONOCYTE” value [3] was 0 CELLS/uL and the “ABSOLUTE SEGMENTED NEUTROPHIL” value [3] was 1238.33 CELLS/uL. The BASOPHIL [3] was 0%, the EOSINOPHIL [3] was 2% and the “ERYTHROCYTE COUNT” value [3] was 5.69 x10E6/uL. For the same compound, the HEMATOCRIT [3] was 35.67%, the HEMOGLOBIN [3] was 13.3 G/DL and the “LEUKOCYTE COUNT” value [3] was 14.97 x10E3/uL. The LYMPHOCYTE [3] was 89.67%, the “MEAN CORPUSCULAR HEMOGLOBIN” value [3] was 23.37 pg and the “MEAN CORPUSCULAR HEMOGLOBIN CONCENTRATION” value [3] was 37.3 G/DL. The “MEAN CORPUSCULAR VOLUME” value [3] was 62.7 fL, the MONOCYTE [3] was 0% and the NEUTROPHIL [3] was 8.33%. For the same compound, the “NUCLEATED RED BLOOD CELLS” value [3] was 0 /100WBC, the “PLATELET COUNT” value [3] was 1188.33 x10E3/uL and the “ALANINE AMINOTRANSFERASE” value [3] was 35.33 u/L. For the same compound, the ALBUMIN [3] was 4.5 G/DL, the “ALKALINE PHOSPHATASE” value [3] was 363.33 u/L and the “ASPARTATE AMINOTRANSFERASE” value [3] was 79 u/L. For the same compound, the “BLOOD UREA NITROGEN” value [3] was 17.33 mg/dL, the “CARBON DIOXIDE” value [3] was 26.33 mmol/L and the CHLORIDE [3] was 100 MEQ/L. The CHOLESTEROL [3] was 67.33 mg/dL, the “CREATINE PHOSPHOKINASE” value [3] was 213 u/L and the CREATININE [3] was 0.25 mg/dL. For the same compound, the GLUCOSE [3] was 158 mg/dL, the “LACTATE DEHYDROGENASE” value [3] was 122 u/L and the LIPASE [3] was 8.33 u/L. The PHOSPHORUS [3] was 12.37 mg/dL, the POTASSIUM [3] was 6.67 MEQ/L and the SODIUM [3] was 142.2 MEQ/L. The “TOTAL BILIRUBIN” value [3] was 0.13 mg/dL, the “TOTAL PROTEIN” value [3] was 6.23 G/DL and the “URIC ACID” value [3] was 1.73 mg/dL.

Reference: ChEMBL document CHEMBL3885881, “DrugMatrix”
